Measurements published in US20240041898A9, “NEUROSTEROIDS AND ENANTIOMERS THEREOF FOR THE PREVENTION AND TREATMENT OF NEURODEGENERATIVE CONDITIONS” (priority 2019, published 2024).
“And” between values parts separate entries of the source, which are not always exact repeats. Identical values can stand only once.

How the values were obtained:
[1] = system: LC3-II; experiment: Ex vivo pressure-loaded retinas, Western blot of LC3-II; type: cell-based, rat; conditions: ex vivo; for LC3-II expression (FIG. 2Q), Average / LC3-II expression (FIG. 2Q), individual experiments 1-4: relative units, control = 1.00, normalized to β-actin
Method: (§1) Rat ex vivo Eyecup Preparation—Rat ex vivo eyecups were prepared from 28-32 day old male Sprague-Dawley rats (Charles River Laboratories International Inc., Wilmington, MA). The anterior half of the enucleated eyes was carefully removed to make eyecup preparations. Eyecups were placed at the bottom of a 100 ml glass beaker filled with aCSF (artificial cerebrospinal fluid) containing (in mM): 124 NaCl, 5 KCl, 2 MgSO4, 2 CaCl2, 1.25 NaH2PO4, 22 NaHCO3, and 10 glucose, and incubated at 30° C. for 24 hours using a closed pressure-loading system (FIG. 1C). pH was maintained at 7.35 to 7.40. In the closed-pressure system, a glass beaker with the eyecup was placed at the bottom of an acrylic pressure chamber (2,000 ml volume). A 95% O2-5% CO2 gas mixture was delivered through disposable plastic tubing with an infusion valve and a control dial on the lid of the pressure chamber and an air filter (Cat #SLGP033RS, Merck Millipore, Billerica, MA). The plastic tubing delivering the gas terminated 1 cm above the bottom of the beaker.
(§2) Acutely prepared eyecups were incubated in gassed aCSF for at least 1 h at 30° C. before pressure loading. In some experiments, AlloP (1 μM), ent-AlloP (1 μM), and 3-MA (10 mM) were dissolved in aCSF at the time of experiment and administered by bath perfusion. Eyecup preparations were treated with these drugs for 1 h at 30° C. before pressure loading. For pressure loading, the 95% O2-5% CO2 gas mixture was infused until the pressure reading given by a manometer reached the appropriate level. The pressure was then locked by adjusting the control dial of the effusion valve, and monitored continuously for 24 h at 30° C.
Western Blot Analysis—At the end of each experiment, the posterior segments of the eye were placed on a flat cutting surface and immersed in ice-cold aCSF. With a surgical blade, the retina was carefully and gently detached from the sclera with a fine forceps. The isolated retinas were frozen at −80° C. Retinas were then homogenized in lysis buffer solution (CelLytic MT; Sigma-Aldrich, Inc.) with protease inhibitor cocktail (Sigma-Aldrich, Inc.), prepared according to the manufacturer's instructions. The tissue extracts were ultrasonicated and clarified by centrifugation at 12,000 g for 20 minutes at 4° C. The protein concentrations in supernatants were assayed (Quant-iT assay kit; Invitrogen Corp., Carlsbad, CA). Twenty micrograms of retinal extract were subjected to SDS polyacrylamide gel electrophoretic analysis. The proteins were then transferred to a PVDF. Immunoblots by polyclonal rabbit anti-LC3B antibody (MBL Life Science) or anti-SQSTMl/p62 mouse monoclonal antibody (Abcam) were visualized using WesternBreeze Chemiluminescent Immunodetection system (Invitrogen) with the exposure time to autoradiograph film (MXJB Plus; Kodak, Rochester, NY) adjusted to avoid over- or undersaturation. Precision Plus Protein™ Western Standards (Bio-Rad, Hercules, CA) followed by Precision Protein™ strep Tactin-AP conjugate (Bio-Rad) was used for a molecular marker of LC3. MagicMark™ XP Western Protein Standard (Invitrogen, Carlsbad, CA) was used for a molecular marker of p62. Immunoblot data are normalized to β-actin levels in the same sample.
The density of Western blot bands was quantified using Image-Pro Plus software. Quantification was adjusted to protein expression at 10 mmHg after normalization to the β-actin band at each pressure, and the relative gray-scale value was calculated by densitometric analysis of the obtained bands. At least four independent experiments were performed for each condition, and the results are presented as relative units numerically. Differences in expression levels were evaluated using Wilcoxon Rank-Sum Test, Tukey's or Dunnett's multiple comparison test. Sample numbers were four to five per each experimental condition.

[2] = system: nerve fiber layer (NFL) of retina; experiment: Ex vivo pressure-loaded retinas, electron microscopy of autophagosomes (AP) and degenerative autophagic vacuoles (DAV); type: cell-based, rat; conditions: 75 mmHg, 1 μM; for Autophagosomes (AP) in the NFL, Total / Degenerative autophagic vacuoles (DAV) in the NFL, Total: Total of 10 areas of 25 μm2; for Autophagosomes (AP)/25 μm2 in the NFL, individual areas 1-10 / Degenerative autophagic vacuoles (DAV)/25 μm2 in the NFL, individual areas 1-10: single values
Method: as §1, §2
Electron Microscopy—Retinal specimens were trimmed to a smaller size, and ultrathin sections (75 nm) were cut with a diamond knife and suspended over formvar-coated slot grids (1×2 mm opening). The sections were stained with uranyl acetate and lead citrate and viewed in a transmission electron microscope (H-7650, Hitachi High-Technologies Corp., Tokyo, Japan). Numbers of AP and DAV inside NFLs and axons were determined as the sum in 10 different areas of 25 μm^2 each from each sample. The analysis was performed in three eyes per experimental condition.

SMILES: CC(=O)[C@H]1CC[C@H]2[C@@H]3CC[C@H]4C[C@H](O)CC[C@]4(C)[C@H]3CC[C@]12C [AlloP, allopregnanolone]
- LC3-II expression (FIG. 2Q), Average ([1]; Average of 4): 3.62
- LC3-II expression (FIG. 2Q), individual experiments 1-4 ([1]; single values): 4.31 and 3.47 and 3.34 (2×)
- RGC axon swelling, electron microscopy [2]: protected RGC axons from high pressure
- Autophagosomes (AP) in the NFL, Total [2]: 16
- Degenerative autophagic vacuoles (DAV) in the NFL, Total [2]: 8
- Autophagosomes (AP)/25 μm2 in the NFL, individual areas 1-10 [2]: 0 /25 μm2 (2×) and 2 /25 μm2 (6×) and 3 /25 μm2 and 1 /25 μm2
- Degenerative autophagic vacuoles (DAV)/25 μm2 in the NFL, individual areas 1-10 [2]: 0 /25 μm2 (4×) and 1 /25 μm2 (5×) and 3 /25 μm2

SMILES: CC(=O)[C@@H]1CC[C@@H]2[C@H]3CC[C@@H]4C[C@@H](O)CC[C@@]4(C)[C@@H]3CC[C@]21C [ent-AlloP, ent-allopregnanolone]
- LC3 expression after 3-MA treatment (FIG. 3F), Average ([1]; 75 mmHg, 1 μM ent-AlloP, 10 mM 3-MA, relative, ent-AlloP + 3-MA = 1.00, Average of 4): 9.00
- LC3 expression after 3-MA treatment (FIG. 3F), individual experiments 1-4 ([1]; 75 mmHg, 1 μM ent-AlloP, 10 mM 3-MA, relative, ent-AlloP + 3-MA = 1.00, single values): 11.20 and 8.89 and 7.78 and 8.11
- LC3-II expression (FIG. 2Q), Average ([1]; Average of 4): 5.25
- LC3-II expression (FIG. 2Q), individual experiments 1-4 ([1]; single values): 6.14 and 5.17 and 4.48 and 5.22
- RGC axon swelling, electron microscopy [2]: protected RGC axons from high pressure
- Autophagosomes (AP) in the NFL, Total [2]: 1
- Degenerative autophagic vacuoles (DAV) in the NFL, Total [2]: 22
- Autophagosomes (AP)/25 μm2 in the NFL, individual areas 1-10 [2]: 0 /25 μm2 (9×) and 1 /25 μm2
- Degenerative autophagic vacuoles (DAV)/25 μm2 in the NFL, individual areas 1-10 [2]: 1 /25 μm2 (3×) and 2 /25 μm2 (4×) and 4 /25 μm2 (2×) and 3 /25 μm2
